US6780885B1, “Formulations and methods for administration of pharmacologically or biologically active compounds” (IDEXX Laboratories, Inc., priority 2000, dated 2004)

What was measured:
roundworms (Ascaridia) = assay: ivermectin formulation in the drinking water of turkeys, roundworm infestation; type: in vivo; conditions: in three days
Method: (§1) The 2% ivermectin solution is diluted 20-fold to 0.1% in water. From the 0.1%, 3.4 ml is dissolved in 5 liters (QS) of water. The dose to be administered in order to obtain effective treatment of various parasites depends on the size of the fowl to be treated (i.e., their drinking capacity). A 4.5 kg turkey will typically drink 600-1000 ml of water every 24 hours. This corresponds to a dose of 100-150 μgm/kg/day. […] The effective dose to administer to any other type of animal to treat a particular type of parasite can be easily determined by simply varying the dosage until arriving at an effective dose.
A non-aqueous, stable formulation of ivermectin was prepared and diluted into the drinking water of market male turkeys as described above. […] The birds were treated at levels of 10, 50, 100, 200, 250, 500, 1200, and 1400 mg/kg of body weight/day. […] The formulation was effective at completely eliminating any visible signs of roundworm infestation at levels down to […] body weight/day in three days.

cecal worms (Heterakis) = assay: ivermectin formulation in the drinking water of turkeys, cecal worms; type: in vivo; conditions: in three days
Method: as §1

## ivermectin
Roundworms (Ascaridia); in drinking water
  dose effective to completely eliminate roundworms (Ascaridia): 200 mg ivermectin/kg body weight/day
Roundworms (Ascaridia); formulation in drinking water
  elimination of roundworms: complete elimination
Cecal worms (Heterakis); in drinking water
  dose effective to completely eliminate cecal worms (Heterakis): 200 mg ivermectin/kg body weight/day
Cecal worms (Heterakis); formulation in drinking water
  elimination of cecal worms: complete elimination
